For one test, the target named is T1, STAT3^127–722 protein (Homo sapiens, UniProt P40763).
T1 construct: made in house
The experiment in a line: Surface plasmon resonance (SPR) assay. It is filed as binding. How it is done: Surface plasmon resonance (SPR) analysis was conducted with a Biacore T200 instrument (GE Healthcare) with CM5 sensor chip (GE Healthcare). To test N4 binding of STAT3^127–722 protein, serially diluted concentrations of N4 were injected into the flow system. Experiments were conducted using phosphate buffered saline (PBS) and the analyte was injected at the flow rate of 30 μL/min. The association time was 60 s and the dissociation time was 30 s. Since N4 was dissolved in PBS containing 5% dimethyl sulfoxide and a solvent correction assay was performed to adjust the results. STAT3^127–722 protein was immobilized on the sensor chip (CM5) using the amine-coupling method according to standard protocols. N4 or Stattic at various concentrations were injected into the flow system. […] The KD values were calculated with the kinetics and affinity analysis option of Biacore T200 plus evaluation software (version 3.0).

In test [1] the test system is STAT3 nuclear translocation. Description: Immunofluorescence of STAT3 nuclear translocation. The following applies: PANC-1 cells, 2 μM for 24 h, then IL-6. It is filed as cell-based. The procedure: Fig. 2 N4 inhibits STAT3 activation in pancreatic cancer cells. A PANC-1, CAPAN-2, and BXPC-3 cells were treated with the indicated concentrations of N4 for 24 h. Then, p-STAT3 (Y705), p-STAT3 (S727), and STAT3 were detected by western blot assays with glyceraldehyde 3-phosphate dehydrogenase (GAPDH) used as the loading control. B Pancreatic cancer cells were starved in a medium lacking fetal bovine serum (FBS; basic medium) for 24 h, and then pretreated with N4 in basic medium for 24 h. Then, stimulated with IL-6 (20 ng/mL) for 30 min and lysed for western blot analysis using the indicated antibodies. C Expression levels of STAT3 downstream genes were detected by western blot following treatment of PANC-1 and CAPAN-2 cells with N4. D PANC-1 cells were seeded and allowed to attach, and then pretreated with 2 μM of N4 in FBS-free medium for 24 h. The cells were stimulated for 30 min using IL-6 (20 ng/mL). […] The samples were photographed and analyzed. […] E After 24 h treatment with 2 μM N4, PANC-1 cells were stimulated with IL-6 (20 ng/mL) for 30 min, and the cytoplasmic and nuclear extractions were analyzed by western blot. p-STAT3 (Y705) was used to detect STAT3, and GAPDH and H3 were used as the cytoplasm and nucleus internal control, respectively.
Immunofluorescence staining was performed as previously described. […] Images were recorded by confocal microscopy (Leica).

The next test deals with T2, STAT3–EGFR interaction (Homo sapiens, UniProt P40763).
T2 construct: endogenous in cells; host or cells: PANC-1
The experiment in a line: Co-immunoprecipitation, STAT3–EGFR interaction. It is filed as cell-based. The following applies: PANC-1 cells, 2 μM, 24 h. From the text:
Fig. 3 N4 interacts with the STAT3-SH2 domain and interferes with the STAT3-EGFR and STAT3-NF-κB interactions. […] C–E The binding between N4 and STAT3 was examined in (C) SPR and (D) MST experiments. His-STAT3^127-722 protein was purified and used to examine the affinity between STAT3 and N4. (E) The binding between N4 and STAT3^SH2 was confirmed in MST assays. STAT3-SH2 protein was purified and labeled. N4 was serially diluted and mixed with equal volumes of labeled STAT3^SH2 protein. The MST signal was measured, and the data were analyzed by MO analysis software. F, G The FLAG-tag and HA-tag STAT3 expression plasmid was transfected into 293 T cells, followed by the addition of the indicated concentrations of N4. After 24 h, cells were lysed, and immunoprecipitation experiments were performed as described in Materials and Methods. H N4 represses STAT3 dimerization in pancreatic cancer cells. I After a 24 h treatment with 2 μM N4, pancreatic cancer cells were stimulated with IL-6 for 30 min. Cell lysates were immunoprecipitated with STAT3 overnight. The precipitates were washed, suspended in non-reducing sample buffer, and boiled for 10 min. The indicated antibodies were used for western blot assays. […]
Co-IP was performed as previously described. […] After overnight incubation, the precipitates were washed and analyzed using western blotting.

What is called Kd is the constant that tells how readily two partners part at equilibrium.

T1 sequence (P40763 127-722): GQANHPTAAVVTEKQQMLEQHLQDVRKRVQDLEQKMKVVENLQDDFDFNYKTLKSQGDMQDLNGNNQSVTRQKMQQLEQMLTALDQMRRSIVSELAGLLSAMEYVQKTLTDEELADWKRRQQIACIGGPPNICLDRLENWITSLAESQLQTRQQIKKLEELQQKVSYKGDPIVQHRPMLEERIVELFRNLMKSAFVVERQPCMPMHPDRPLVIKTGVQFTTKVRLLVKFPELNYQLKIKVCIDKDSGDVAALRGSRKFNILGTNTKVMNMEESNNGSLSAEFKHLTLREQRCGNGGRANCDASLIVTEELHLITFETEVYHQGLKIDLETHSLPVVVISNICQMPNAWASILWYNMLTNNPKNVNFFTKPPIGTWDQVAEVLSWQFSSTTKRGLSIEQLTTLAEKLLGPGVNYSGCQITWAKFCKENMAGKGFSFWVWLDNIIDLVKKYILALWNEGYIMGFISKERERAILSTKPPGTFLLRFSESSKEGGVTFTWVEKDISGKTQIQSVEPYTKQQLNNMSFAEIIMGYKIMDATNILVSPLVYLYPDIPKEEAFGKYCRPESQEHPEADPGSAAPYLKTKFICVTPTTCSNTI
T2 sequence (P40763 2-770 limits assumed): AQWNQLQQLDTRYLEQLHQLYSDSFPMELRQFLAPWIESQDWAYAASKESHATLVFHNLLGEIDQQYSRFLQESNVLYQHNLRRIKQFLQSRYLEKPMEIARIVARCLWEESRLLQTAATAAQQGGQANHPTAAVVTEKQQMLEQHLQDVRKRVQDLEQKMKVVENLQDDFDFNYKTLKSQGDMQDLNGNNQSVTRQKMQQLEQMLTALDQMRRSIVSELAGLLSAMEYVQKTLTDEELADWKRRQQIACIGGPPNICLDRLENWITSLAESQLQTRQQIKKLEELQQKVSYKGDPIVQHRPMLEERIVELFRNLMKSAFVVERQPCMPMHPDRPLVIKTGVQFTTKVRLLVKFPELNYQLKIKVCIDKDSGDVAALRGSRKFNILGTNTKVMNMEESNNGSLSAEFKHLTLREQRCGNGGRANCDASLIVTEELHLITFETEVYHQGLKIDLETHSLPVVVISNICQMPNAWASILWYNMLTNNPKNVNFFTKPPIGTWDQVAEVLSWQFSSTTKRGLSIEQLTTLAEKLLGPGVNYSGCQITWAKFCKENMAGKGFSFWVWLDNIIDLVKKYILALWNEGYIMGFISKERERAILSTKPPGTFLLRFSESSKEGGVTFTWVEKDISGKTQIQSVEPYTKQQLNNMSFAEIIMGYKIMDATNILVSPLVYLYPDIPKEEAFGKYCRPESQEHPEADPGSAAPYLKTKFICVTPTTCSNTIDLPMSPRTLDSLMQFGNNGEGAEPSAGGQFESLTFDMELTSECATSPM

As for `COc1cc2c(cc1C(=O)Nc1cccc3cccnc13)CCC1C(C)(C)C(=O)C(C#N)=C[C@]21C` (stereo partly shown) [N4], the Kd at STAT3^127–722 protein (SPR, STAT3^127–722 immobilized on CM5 chip, 25 °C) was 1040 nM. For the same molecule, the “improvement of binding affinities to STAT3 than Stattic” value at STAT3^127–722 protein (in FP and SPR experiments) is on record as “approximately tenfold improvement”. Moreover, the STAT3 nuclear translocation entry in test [1] was “substantially impaired”. In addition, the “STAT3–EGFR interaction” value on STAT3–EGFR interaction is listed as “inhibited”.
